experiment: cuticle abrasion test (hair washed with shampoo test composition, blended, cuticle recovered and weighed); details: freeze-dried cuticle weighed back after abrasion; 0.03M compound in base shampoo; 4 g hair washed twice in 0.4 g test composition; lower = less cuticle loss
Procedure: A base shampoo composition was prepared, comprising 12 wt % sodium lauryl ether sulphate (2EO), […] cocoamidopropyl betaine and 86 wt. % water.
To this base solution 0.03M of the following compounds was added:
The compositions were tested in a cuticle abrasion test. Root end hair (as received form the supplier) was pre-cleaned by washing for 1 minute in Composition I followed by copious rinsing in double deionised water. The hair was left to dry naturally over 24 hrs.
For each test, 4 g of hair was washed in 0.4 g of the test composition for 30 seconds, rinsed for 30 seconds, and the washing/rinsing cycle repeated. The hair was left to dry naturally overnight.
The hair was cut into 1 cm lengths, placed in a blender bucket and 200 ml of double de-ionized water was added. The blender was placed on full power for 1 minute. The liquor was decanted off and transferred to a 50 ml centrifuge tube and centrifuged for 10 minutes at 4,300 RPM. The resulting clear liquor was decanted off leaving the cuticle sediment at the bottom of the tube.
The cuticle was transferred from the tube into a beaker with 3×5 ml washes and passed through a series of sieves (425 and 53 microns). The sieves were washed with a further 2×10 ml of water to ensure complete recovery of the cuticle. The sample was made up to 50 ml in a centrifuge tube, centrifuged for 15 minutes and the liquor decanted off. The cuticle was transferred with double deionised water (2×10 ml washes) to a beaker and freeze-dried.
The freeze-dried cuticle was weighed back to determine percentage recovery.

| SMILES | % recovery [%] |
| --- | --- |
| CCC(C)(O)CCCC(C)C (stereo not drawn) [B, 3,7-dimethyl-3-octanol, reference compound] | 0.84 |
| CC(C)CC(C)O (stereo not drawn) [C, 4-methyl-2-pentanol, reference compound] | 0.79 |
| CCCCC(C)(C)O [Example 1, 2-methyl-2-hexanol] | 0.53 |
| CCCCCC(C)(C)O [Example 2, 2-methyl-2-heptanol] | 0.54 |
| CCCCC(O)C(C)C (stereo not drawn) [Example 3, 2-methyl-3-heptanol] | 0.55 |
| CCCC(C)(C)O [Example 4, 2-methyl-2-pentanol] | 0.58 |
| CCC(C)C(C)O (stereo not drawn) [Example 6, 3-methyl-2-pentanol] | 0.62 |
| CCCC(C)CO (stereo not drawn) [Example 7, 2-methyl-1-pentanol] | 0.64 |
| CCCC(C)(O)CC(C)C (stereo not drawn) [Example A, 2,4-dimethyl-4-heptanol, reference compound] | 0.84 |

From patent publication US20070128139A1, “Hair treatment compositions comprising hydroxy comopounds” (priority 2002, published 2007)
